# US12617745B2, “Curcusone diterpenoids and uses thereof” (Purdue Research Foundation, priority 2020, dated 2026)
# Like-named read-outs stand apart in the source and are kept apart here. Peptide text beside a SMILES is read from it. * marks the point of attachment. Cbz = O=C(OCc1ccccc1)*
# Assays:
# MCF-7 cells = experiment: Cytotoxicity in MCF-7 cells, WST-1 assay; type: cell-based, human; conditions: for EC50 values against MCF-7 cells, in words / EC50 / IC50 / cytotoxicity / anticancer activity in MCF-7 cells, comparative statement: 24 h compound treatment, WST-1; for EC50: read-out: EC50, viability of MCF-7 cells; for IC50: read-out: IC50 value / antiproliferation activity in MCF-7 cells
# Source text: The absorbance at 420 nm and 630 nm was then acquired using a BioTek Synergy H1 microplate reader. Cell viability results were plotted in GraphPad Prism 7.
# BRAT1 [1] = molecular target: T1, BRAT1 (Homo sapiens, UniProt Q6PJG6); experiment: In situ competitive pulldown assay via Western blotting; type: cell-based; design: endogenous in cells; host or cells: HeLa, MCF-7, MDA-MB-231 (live cells or HeLa lysate)
# T1 sequence (Q6PJG6 1-821): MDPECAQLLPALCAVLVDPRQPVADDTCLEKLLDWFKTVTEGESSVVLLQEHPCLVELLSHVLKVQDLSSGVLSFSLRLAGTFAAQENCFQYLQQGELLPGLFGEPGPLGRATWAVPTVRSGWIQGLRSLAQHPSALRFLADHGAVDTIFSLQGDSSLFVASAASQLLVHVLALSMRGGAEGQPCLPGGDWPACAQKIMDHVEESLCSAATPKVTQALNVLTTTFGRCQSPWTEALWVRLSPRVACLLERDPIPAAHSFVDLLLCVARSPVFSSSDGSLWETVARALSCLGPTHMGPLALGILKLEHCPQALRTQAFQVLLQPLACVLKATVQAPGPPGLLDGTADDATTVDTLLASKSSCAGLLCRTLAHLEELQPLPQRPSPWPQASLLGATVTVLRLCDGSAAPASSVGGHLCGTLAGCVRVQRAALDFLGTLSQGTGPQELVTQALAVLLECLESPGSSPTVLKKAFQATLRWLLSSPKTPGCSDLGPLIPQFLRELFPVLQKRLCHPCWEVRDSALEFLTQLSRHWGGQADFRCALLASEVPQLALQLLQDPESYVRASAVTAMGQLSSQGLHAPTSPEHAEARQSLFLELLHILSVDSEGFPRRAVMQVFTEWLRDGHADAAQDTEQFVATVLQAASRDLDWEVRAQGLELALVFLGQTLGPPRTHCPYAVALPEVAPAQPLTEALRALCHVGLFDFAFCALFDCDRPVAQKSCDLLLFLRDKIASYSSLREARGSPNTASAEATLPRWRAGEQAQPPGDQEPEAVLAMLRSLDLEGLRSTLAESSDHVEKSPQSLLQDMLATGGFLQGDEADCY
# HeLa cells = experiment: Global proteomics profiling using LC-MS/MS; type: cell-based, human; conditions: 3 μM, 24 h, among 3347 quantified proteins
# [2] = system: HeLa, MCF-7 and MDA-MB-231 cells; experiment: Transwell migration assay; type: cell-based, human; conditions: 1 μM, 24 hours, all cell lines
# FLAG-BRAT1 = molecular target: T2, FLAG-BRAT1 (Homo sapiens, UniProt Q6PJG6); experiment: Thermal shift assay of FLAG-BRAT1 via Western blotting; type: binding; conditions: HEK-293T lysate, 30 μM, 34° C. to 61° C.
# T2 construct: expressed in transfected cells; host or cells: HEK-293T, transient transfection, lysate
# T2 sequence (Q6PJG6 1-821): T1 sequence (Q6PJG6 1-821)
# Method: HEK-293T (8e6) cells were seeded in a 10 cm dish in DMEM without pen-strep. After incubating overnight, 24 μg of FLAG-BRAT1 pExp plasmid was incubated for 15 min at r.t. with 96 μL of PEI MAX™ 40K (Polysciences 24765-1) in final volume of 2 mL Opti-MEM (Gibco 11058021). The mixture was then carefully added to the cells. After 24 hours, the cells were carefully washed twice with PBS, and the lysate was prepared by sonication in PBS as described above.
# The supernatant was carefully isolated. SDS-PAGE reducing loading buffer (4×) was added to the isolated supernatant, and proteins were transferred to a PVDF (0.2 μm) membrane using wet transfer with tris-glycine transfer buffer (20% methanol) for one hour at 350 mA. Membrane was blocked with 5% milk in tris-buffered saline with 0.1% Tween 20 (TBST) for 30-60 minutes at r.t. and then incubated with primary rabbit polyclonal BRAT1 antibody (Novus NB100-2256, 1:2000 in 5% milk in TBST) overnight shaking at 4° C. Membrane was washed three times for five min with TBST and incubated with anti-rabbit Alexa Fluor 647 (Jackson ImmunoResearch Inc., 1:500 in 5% milk in TBST) for one hour at r.t. Membrane was then washed 3× with TBST and visualized with an Azure Biosystems Sapphire Biomolecular Imager. […]
# BRAT1 [3] = molecular target: T1, BRAT1; experiment: In situ dose response via competitive pulldown assay with probe 37; type: cell-based
# Method: HeLa (2.0e6) cells were seeded in 60 mm dishes. […] The lysates were prepared and quantified as described above. Lysates (2 mg/mL, 140 μL) was treated with 10 μM 37 (50× stock in DMSO) for one hour at r.t. and then subjected to click chemistry with biotin azide as described above for one hour at r.t. Proteins were precipitated, re-solubilized in 0.2% SDS in PBS, enriched with 50 μL streptavidin beads, and washed as described above. Proteins were eluted using 30 μL SDS-PAGE reducing loading buffer (4×), subjected to 10 min heat denaturation (95° C.), separated using a 11% SDS-PAGE gel, and visualized via Western blotting as described above. Images were quantified with ImageJ. EC50 and Kitz-Wilson binding constants were calculated using GraphPad Prism 7.
# BRAT1 [4] = molecular target: T1, BRAT1; experiment: In situ competitive MS-based target identification; type: cell-based; conditions: MCF-7 cells, 30 μM 1d 4 hours, 10 μM 37
# Method: MCF-7 (8e6) cells were seeded in 10 cm Petri dishes and incubated overnight. […] Lysate was prepared as described above. Lysate (2 mg/mL, 0.75 mL) was treated with 10 μM 37 (50× stock in DMSO) for one hour at r.t. and then subjected to click chemistry. […] (Click Chemistry Tools, 50 μM, 50× stock in DMSO), tris(2-carboxyethyl)phosphine hydrochloride (TCEP) (1 mM, Sigma-Aldrich C4706-2G, 50× fresh stock in water), tris[(1-benzyl-1H1,2,3-triazol-4-yl)methyl]amine (TBTA) (100 μM, Click Chemistry Tools, 16× stock in DMSO:tBuOH 1:4), and copper(II) sulfate (Sigma-Aldrich, 1 mM, 50× stock in water) were added to the proteome and left to react for one hour at r.t. […] Samples were analyzed by LC-MS/MS (see below) and the MS data was processed with MaxQuant (see below).
# Peptides were resuspended in water with 0.1% formic acid (FA) and analyzed using EASY-nLC 1200 nano-UHPLC coupled to Q Exactive HF-X Quadrupole-Orbitrap mass spectrometer (Thermo Scientific). […]
# The MS data was analyzed with MaxQuant9 (V1.6.1.0)^7 and searched against the human proteome (Uniprot) and a common list of contaminants (included in MaxQuant). […] The minimum peptide length was set to 6 amino acids and peptide re-quantification, label-free quantification (MaxLFQ) and “match between runs” were enabled. […]
# BRAT1 [5] = molecular target: T1, BRAT1; experiment: Competitive BRAT1 pulldown with iodoacetamide (binding reversibility); design: endogenous in cells; host or cells: HeLa (HeLa lysate); conditions: HeLa lysate, IAA 30 mM 1 h pre- or posttreatment, 37 10 μM
# Method: To evaluate the binding reversibility, we performed a competitive BRAT1 pulldown assay with the irreversible cysteine-reactive probe iodoacetamide (IAA). HeLa lysate was treated with 37 (10 μM) for 1 h with either pre- or posttreatment with IAA (30 mM) for 1 h followed by enrichment and Western blot analysis as described above.
# BRAT1 [6] = molecular target: T1, BRAT1; experiment: BRAT1 protein level after 1d treatment (global proteomics, Western blot); type: cell-based; design: endogenous in cells; host or cells: HeLa, MCF-7, MDA-MB-231 (live cells or HeLa lysate); conditions: added for the final 4 hours of 1d treatment
compound,measurement,setting,value
"C=C(C)C1CCC(=C)C2C3=C(C[C@H](C)C3=O)C(=O)C(C)=C[C@@H]12 (single isomer, unassigned; (-)) [1b, (−)-Curcusone B]","EC50 values against MCF-7 cells, in words",MCF-7 cells,micromolar
same,cytotoxicity value of synthetic sample versus naturally isolated counterpart,MCF-7 cells; MCF-7 cells,virtually identical
"C=C(C)C1CCC(=C)C2C3=C(CC(C)(O)C3=O)C(=O)C(C)=CC12 (single isomer, unassigned; (-)) [1d, (−)-Curcusone D]",competition of BRAT1 enrichment by 37,BRAT1 [1]; HeLa and MDA-MB-231 cells,competed the enrichment of BRAT1
same,competition of BRAT1 enrichment by 37,"BRAT1 [1]; MCF-7 cells, 4 hours",competed
same,number of down-regulated proteins,HeLa cells,42
same,number of up-regulated proteins,HeLa cells,36
same,"EC50 values against MCF-7 cells, in words",MCF-7 cells,micromolar
same,EC50,"MCF-7 cells; Homo sapiens, MCF7",13.8 µM
same,reduction of cell migration,[2],~4 fold
same,thermal stability of FLAG-BRAT1,FLAG-BRAT1,thermal destabilization
same,EC50,"BRAT1 [3]; in situ treatment of live HeLa cells, read-out: EC50, competition of BRAT1 enrichment by 37",2.7 µM
same,concentration at 50% fractional occupancy (f occ. (50)) of BRAT1,"BRAT1 [3]; live HeLa cells, 4 h",2.7 µM
same,protein competed from probe 37 enrichment,BRAT1 [4],best competed target was BRAT1
"NC(=O)CI [IAA, iodoacetamide]",competition of BRAT1 enrichment by 37,BRAT1 [5],competed BRAT1 enrichment by 37
CC(C)C[C@@H](C=O)NC(=O)[C@H](CC(C)C)NC(=O)[C@H](CC(C)C)NC(=O)OCc1ccccc1 [MG132] (Cbz-Leu-Leu-Leu-aldehyde),BRAT1 protein levels with proteasome inhibitor,BRAT1 [6],recovered BRAT1 protein levels
"C=C(C)[C@H]1CCC(=C)[C@@H]2[C@@H]1C=C(C)C(=O)[C@]21CC=C(C)C1=O [compound 3, (+)-Spirocurcasone]",IC50,MCF-7 cells,62.7 µM
(−)-dimericursone A [2a],"cytotoxicity / anticancer activity in MCF-7 cells, comparative statement",MCF-7 cells,no toxicity
same,EC50,MCF-7 cells,> 100 µM
(−)-pyracurcasone [compound 33],"cytotoxicity / anticancer activity in MCF-7 cells, comparative statement",MCF-7 cells,slightly better antiproliferation activity
same,IC50,MCF-7 cells,8 µM
